In the NIST ThermoML archive (doi:10.1016/j.jct.2015.01.004):
“And” between values parts separate entries of the source, which are not always exact repeats. Equal entries are not always repeated.

Test: molar heat capacity at constant pressure; xn = mol fraction of the nth substance listed
Details: 100 kPa

[Si] [silicon] + [Li]
Details	molar heat capacity at constant pressure
213.05 K, Crystal of intercomponent compound 2, relaxation calorimeter, x2 = 0.804	19.41 J/K/mol
217.1 K, Crystal of intercomponent compound 2, relaxation calorimeter, x2 = 0.804	19.42 J/K/mol
217.11 K, Crystal of intercomponent compound 1, relaxation calorimetry, x2 = 0.81	19.04 J/K/mol
217.12 K, Crystal of intercomponent compound 2, relaxation calorimeter, x2 = 0.804	19.59 J/K/mol
220 K, Crystal of intercomponent compound 1, relaxation calorimetry + DSC, x2 = 0.81	19.27 J/K/mol
220 K, Crystal of intercomponent compound 2, relaxation calorimetry + DSC, x2 = 0.804	19.69 J/K/mol
221.11 K, Crystal of intercomponent compound 2, relaxation calorimeter, x2 = 0.804	19.62 J/K/mol
221.12 K, Crystal of intercomponent compound 1, relaxation calorimetry, x2 = 0.81	19.24 J/K/mol
221.13 K, Crystal of intercomponent compound 2, relaxation calorimeter, x2 = 0.804	19.84 J/K/mol
225.23 K, Crystal of intercomponent compound 2, relaxation calorimeter, x2 = 0.804	19.86 J/K/mol
225.24 K, Crystal of intercomponent compound 1, relaxation calorimetry, x2 = 0.81	19.46 J/K/mol
225.25 K, Crystal of intercomponent compound 2, relaxation calorimeter, x2 = 0.804	20.03 J/K/mol
229.28 K, Crystal of intercomponent compound 2, relaxation calorimeter, x2 = 0.804	20.05 J/K/mol
229.3 K, Crystal of intercomponent compound 1, relaxation calorimetry, x2 = 0.81	19.66 J/K/mol
229.31 K, Crystal of intercomponent compound 2, relaxation calorimeter, x2 = 0.804	20.22 J/K/mol
230 K, Crystal of intercomponent compound 1, relaxation calorimetry + DSC, x2 = 0.81	19.74 J/K/mol
230 K, Crystal of intercomponent compound 2, relaxation calorimetry + DSC, x2 = 0.804	20.16 J/K/mol
233.29 K, Crystal of intercomponent compound 2, relaxation calorimeter, x2 = 0.804	20.23 J/K/mol
233.3 K, Crystal of intercomponent compound 1, relaxation calorimetry, x2 = 0.81	19.83 J/K/mol
233.31 K, Crystal of intercomponent compound 2, relaxation calorimeter, x2 = 0.804	20.38 J/K/mol
237.4 K, Crystal of intercomponent compound 2, relaxation calorimeter, x2 = 0.804	20.4 J/K/mol
237.41 K, Crystal of intercomponent compound 1, relaxation calorimetry, x2 = 0.81	20 J/K/mol
237.43 K, Crystal of intercomponent compound 2, relaxation calorimeter, x2 = 0.804	20.54 J/K/mol
240 K, Crystal of intercomponent compound 1, relaxation calorimetry + DSC, x2 = 0.81	20.18 J/K/mol
240 K, Crystal of intercomponent compound 2, relaxation calorimetry + DSC, x2 = 0.804	20.58 J/K/mol
241.46 K, Crystal of intercomponent compound 2, relaxation calorimeter, x2 = 0.804	20.62 J/K/mol
241.48 K, Crystal of intercomponent compound 1, relaxation calorimetry, x2 = 0.81	20.17 J/K/mol
241.49 K, Crystal of intercomponent compound 2, relaxation calorimeter, x2 = 0.804	20.73 J/K/mol
245.47 K, Crystal of intercomponent compound 2, relaxation calorimeter, x2 = 0.804	20.87 J/K/mol
245.48 K, Crystal of intercomponent compound 1, relaxation calorimetry, x2 = 0.81	20.3 J/K/mol
245.5 K, Crystal of intercomponent compound 2, relaxation calorimeter, x2 = 0.804	20.93 J/K/mol
249.59 K, Crystal of intercomponent compound 2, relaxation calorimeter, x2 = 0.804	21 J/K/mol
249.6 K, Crystal of intercomponent compound 1, relaxation calorimetry, x2 = 0.81	20.44 J/K/mol
249.62 K, Crystal of intercomponent compound 2, relaxation calorimeter, x2 = 0.804	21.13 J/K/mol
250 K, Crystal of intercomponent compound 1, relaxation calorimetry + DSC, x2 = 0.81	20.59 J/K/mol
250 K, Crystal of intercomponent compound 2, relaxation calorimetry + DSC, x2 = 0.804	20.99 J/K/mol
253.66 K, Crystal of intercomponent compound 2, relaxation calorimeter, x2 = 0.804	21.14 J/K/mol
253.67 K, Crystal of intercomponent compound 1, relaxation calorimetry, x2 = 0.81	20.58 J/K/mol
253.68 K, Crystal of intercomponent compound 2, relaxation calorimeter, x2 = 0.804	21.27 J/K/mol
257.65 K, Crystal of intercomponent compound 2, relaxation calorimeter, x2 = 0.804	21.3 J/K/mol
257.66 K, Crystal of intercomponent compound 1, relaxation calorimetry, x2 = 0.81	20.7 J/K/mol
257.68 K, Crystal of intercomponent compound 2, relaxation calorimeter, x2 = 0.804	21.42 J/K/mol
260 K, Crystal of intercomponent compound 1, relaxation calorimetry + DSC, x2 = 0.81	20.98 J/K/mol
260 K, Crystal of intercomponent compound 2, relaxation calorimetry + DSC, x2 = 0.804	21.37 J/K/mol
261.78 K, Crystal of intercomponent compound 1, relaxation calorimetry, x2 = 0.81	20.8 J/K/mol
261.78 K, Crystal of intercomponent compound 2, relaxation calorimeter, x2 = 0.804	21.42 J/K/mol
261.79 K, Crystal of intercomponent compound 2, relaxation calorimeter, x2 = 0.804	21.54 J/K/mol
265.83 K, Crystal of intercomponent compound 2, relaxation calorimeter, x2 = 0.804	21.55 J/K/mol
265.84 K, Crystal of intercomponent compound 1, relaxation calorimetry, x2 = 0.81	20.92 J/K/mol
265.86 K, Crystal of intercomponent compound 2, relaxation calorimeter, x2 = 0.804	21.64 J/K/mol
269.82 K, Crystal of intercomponent compound 2, relaxation calorimeter, x2 = 0.804	21.67 J/K/mol
269.85 K, Crystal of intercomponent compound 1, relaxation calorimetry, x2 = 0.81	21.06 J/K/mol
269.85 K, Crystal of intercomponent compound 2, relaxation calorimeter, x2 = 0.804	21.75 J/K/mol
270 K, Crystal of intercomponent compound 1, relaxation calorimetry + DSC, x2 = 0.81	21.36 J/K/mol
270 K, Crystal of intercomponent compound 2, relaxation calorimetry + DSC, x2 = 0.804	21.73 J/K/mol
273.88 K, Crystal of intercomponent compound 2, relaxation calorimeter, x2 = 0.804	21.84 J/K/mol
273.9 K, Crystal of intercomponent compound 1, relaxation calorimetry, x2 = 0.81	21.15 J/K/mol
273.91 K, Crystal of intercomponent compound 2, relaxation calorimeter, x2 = 0.804	21.9 J/K/mol
278.02 K, Crystal of intercomponent compound 1, relaxation calorimetry, x2 = 0.81	21.25 J/K/mol
278.02 K, Crystal of intercomponent compound 2, relaxation calorimeter, x2 = 0.804	21.93 J/K/mol
278.04 K, Crystal of intercomponent compound 2, relaxation calorimeter, x2 = 0.804	22 J/K/mol
280 K, Crystal of intercomponent compound 1, relaxation calorimetry + DSC, x2 = 0.81	21.72 J/K/mol
280 K, Crystal of intercomponent compound 2, relaxation calorimetry + DSC, x2 = 0.804	22.09 J/K/mol
282.07 K, Crystal of intercomponent compound 2, relaxation calorimeter, x2 = 0.804	22.06 J/K/mol
282.08 K, Crystal of intercomponent compound 1, relaxation calorimetry, x2 = 0.81	21.37 J/K/mol
282.09 K, Crystal of intercomponent compound 2, relaxation calorimeter, x2 = 0.804	22.11 J/K/mol
284.87 K, Crystal of intercomponent compound 1, Small sample (50 mg) DSC, x2 = 0.81	22.13 J/K/mol and 22.16 J/K/mol
284.87 K, Crystal of intercomponent compound 2, Small sample (50 mg) DSC, x2 = 0.804	22.41 J/K/mol
286.06 K, Crystal of intercomponent compound 2, relaxation calorimeter, x2 = 0.804	22.16 J/K/mol
286.08 K, Crystal of intercomponent compound 1, relaxation calorimetry, x2 = 0.81	21.42 J/K/mol
286.08 K, Crystal of intercomponent compound 2, relaxation calorimeter, x2 = 0.804	22.26 J/K/mol
290 K, Crystal of intercomponent compound 1, relaxation calorimetry + DSC, x2 = 0.81	22.08 J/K/mol
290 K, Crystal of intercomponent compound 2, relaxation calorimetry + DSC, x2 = 0.804	22.45 J/K/mol
290.12 K, Crystal of intercomponent compound 1, relaxation calorimetry, x2 = 0.81	21.52 J/K/mol
290.13 K, Crystal of intercomponent compound 2, relaxation calorimeter, x2 = 0.804	22.36 J/K/mol
294.26 K, Crystal of intercomponent compound 1, relaxation calorimetry, x2 = 0.81	21.6 J/K/mol
294.27 K, Crystal of intercomponent compound 2, relaxation calorimeter, x2 = 0.804	22.5 J/K/mol
294.79 K, Crystal of intercomponent compound 2, Small sample (50 mg) DSC, x2 = 0.804	22.86 J/K/mol
294.8 K, Crystal of intercomponent compound 1, Small sample (50 mg) DSC, x2 = 0.81	22.38 J/K/mol and 22.54 J/K/mol
298.15 K, Crystal of intercomponent compound 1, relaxation calorimetry + DSC, x2 = 0.81	22.38 J/K/mol
